Results from US11000033B2, “Ketone or oxime compound, and herbicide” (NISSAN CHEMICAL CORPORATION, priority 2014, dated 2021).

How the values were obtained:
Format in all cases: in vivo
[1] = test system: rice plant; experiment: Test Example 5: effect on crop by foliage application, plastic box (symbol b); conditions: 320 g/ha, 3 weeks after application
Method in brief: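 Box culture: sterile diluvial soil, seeds spot-sown, ~1.5 cm cover, raised under glass at 25–30° C.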

[2] = test system: Echinochloa crus-galli var. crus-galli; experiment: Test Example 3: herbicidal effect by foliage application, Wagner pot (symbol H); conditions: application herbicide amount 320 g/ha
Method in brief: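 Post-emergence, paddy-type test: seedlings 14 d old in shallow-flooded (0.1–0.5 cm) alluvial soil, 25–30 °C greenhouse. Emulsion diluted to target rate, sprayed on leaves. Read-out: visual effect on each species at 3 weeks, per set criteria.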

[3] = test system: Digitaria ciliaris; experiment: Test Example 4: herbicidal effect by soil treatment (symbol F); conditions: for F: Digitaria ciliaris, herbicidal effect grade: 320 g/ha
Method in brief: (§1)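 Seeds were sown in sterilized diluvial soil, covered with about 1.5 cm of soil, and the soil surface was sprayed with a water-diluted emulsion of the compound at a predetermined rate. Plants grew in a greenhouse at 25° C. to 30° C.; effects were scored visually 3 weeks after application.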

[4] = test system: beet; experiment: Test Example 4: effect on crop by soil treatment (symbol f); conditions: for f: beet, effect grade on crop: 320 g/ha
Method in brief: (§2)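 Plants are raised in a greenhouse (25° C. to 30° C.) from spot-sown seed, which sits under about 1.5 cm of sterilized diluvial soil in a box shared with weed species.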

[5] = test system: Setaria viridis; experiment: Test Example 4: herbicidal effect by soil treatment (symbol G); conditions: for G: Setaria viridis, herbicidal effect grade: 320 g/ha
Method in brief: as §1

[6] = test system: Lolium multiflorum Lam.; experiment: Test Example 4: herbicidal effect by soil treatment (symbol K); conditions: for K: Lolium multiflorum Lam., herbicidal effect grade: 320 g/ha
Method in brief: as §1

[7] = test system: Veronica persica; experiment: Test Example 5: herbicidal effect by foliage application, plastic box (symbol R); conditions: 320 g/ha, 3 weeks after application
Method in brief: (§3)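 Emulsion formulation, diluted with water to the intended rate, was applied uniformly to leaves by small sprayer. Recipients were 14-day greenhouse-grown seedlings (25° C. to 30° C.). Assessment followed at 3 weeks.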

[8] = test system: Apera spica-venti; experiment: Test Example 4: herbicidal effect by soil treatment (symbol L)
Method in brief: as §1

[9] = test system: Chenopodium album; experiment: Test Example 4: herbicidal effect by soil treatment (symbol O); conditions: for O: Chenopodium album, herbicidal effect grade: 320 g/ha
Method in brief: as §1

[10] = test system: Stellaria media; experiment: Test Example 5: herbicidal effect by foliage application, plastic box (symbol P); conditions: 320 g/ha, 3 weeks after application
Method in brief: as §3

[11] = test system: Galium spurium; experiment: Test Example 4: herbicidal effect by soil treatment (symbol Q); conditions: for Q: Galium spurium, herbicidal effect grade: 320 g/ha
Method in brief: as §1

[12] = test system: soybean; experiment: Test Example 4: effect on crop by soil treatment (symbol d); conditions: for d: soybean, effect grade on crop: 320 g/ha
Method in brief: as §2

[13] = test system: Abutilon theophrasti; experiment: Test Example 5: herbicidal effect by foliage application, plastic box (symbol M); conditions: 320 g/ha, 3 weeks after application
Method in brief: as §3

[14] = test system: Avena fatua; experiment: Test Example 5: herbicidal effect by foliage application, plastic box (symbol I); conditions: 320 g/ha, 3 weeks after application
Method in brief: as §3

[15] = test system: Apera spica-venti; experiment: Test Example 5: herbicidal effect by foliage application, plastic box (symbol L); conditions: 320 g/ha, 3 weeks after application
Method in brief: as §3

[16] = test system: Abutilon theophrasti; experiment: Test Example 4: herbicidal effect by soil treatment (symbol M); conditions: for M: Abutilon theophrasti, herbicidal effect grade: 320 g/ha
Method in brief: as §1

[17] = test system: Chenopodium album; experiment: Test Example 5: herbicidal effect by foliage application, plastic box (symbol O); conditions: 320 g/ha, 3 weeks after application
Method in brief: as §3

[18] = test system: Monochoria vaginalis; experiment: Test Example 2: herbicidal activity, application during weed generation in submerged conditions (symbol C); conditions: Table 23; application herbicide amount 320 g/ha; grade 0-5 by criteria of Test Example 1
Method in brief: (§4)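 Steps: fill pots with alluvial soil; add water to 4 cm depth; co-sow the three weeds; grow at 25° C. to 30° C. under glass; at 1–2 leaves, dose the floodwater with diluted emulsion; rate damage visually after 3 weeks.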

[19] = test system: Echinochloa oryzacola Vasing.; experiment: Test Example 2: herbicidal activity, application during weed generation in submerged conditions (symbol A); conditions: Table 23; application herbicide amount 320 g/ha; grade 0-5 by criteria of Test Example 1
Method in brief: as §4

[20] = application herbicide amount 320 g/ha

| SMILES | b: directly sowed rice plant, effect on crop (criteria 0-5) [1] | herbicidal effect on H (Echinochloa crus-galli var. crus-galli), grade 0-5 [2] | F: Digitaria ciliaris, herbicidal effect grade [3] | f: beet, effect grade on crop [4] | G: Setaria viridis, herbicidal effect grade [5] | K: Lolium multiflorum Lam., herbicidal effect grade [6] | R: Veronica persica, herbicidal effect (criteria 0-5) [7] | O: Chenopodium album, herbicidal effect grade [9] | P: Stellaria media, herbicidal effect (criteria 0-5) [10] | Q: Galium spurium, herbicidal effect grade [11] | d: soybean, effect grade on crop [12] | M: Abutilon theophrasti, herbicidal effect (criteria 0-5) [13] | I: Avena fatua, herbicidal effect (criteria 0-5) [14] | L: Apera spica-venti, herbicidal effect (criteria 0-5) [15] | M: Abutilon theophrasti, herbicidal effect grade [16] | Herbicidal effect grade, C: Monochoria vaginalis [18] | Herbicidal effect grade, A: Echinochloa oryzacola Vasing. [19] | O: Chenopodium album, herbicidal effect (criteria 0-5) [17] | further results |
| --- | --- | --- | --- | --- | --- | --- | --- | --- | --- | --- | --- | --- | --- | --- | --- | --- | --- | --- | --- |
| CC(CC1CC(OC(=O)N2CCOCC2)=C(c2c(C)cc(-c3ccc(Cl)cc3)cc2C)C1=O)=NOCC(F)(F)F (mixture of isomers) [9-025] |  |  |  |  |  |  |  |  |  |  |  |  |  |  |  |  |  |  | b: directly sowed rice plant, effect on crop grade [1]: 0 (Herbicidal ratio of 5% or lower (almost no effect)); H (Echinochloa crus-galli var. crus-galli) herbicidal effect grade ([2]; Table 24): 0 (Herbicidal ratio of 5% or lower (almost no effect)); Herbicidal effect grade, F: Digitaria ciliaris [3, 20]: 2 (Herbicidal ratio of 20% or higher and lower than 40%); Effect on crop grade, f: beet [4, 20]: 0 (Herbicidal ratio of 5% or lower (almost no effect)); Herbicidal effect grade, G: Setaria viridis [5, 20]: 0 (Herbicidal ratio of 5% or lower (almost no effect)); Herbicidal effect grade, K: Lolium multiflorum Lam. [6, 20]: 0 (Herbicidal ratio of 5% or lower (almost no effect)); R: Veronica persica, herbicidal effect grade [7]: 0 (Herbicidal ratio of 5% or lower (almost no effect)); Herbicidal effect grade, L: Apera spica-venti [8, 20]: 0 (Herbicidal ratio of 5% or lower (almost no effect)); Herbicidal effect grade, O: Chenopodium album [9, 20]: 0 (Herbicidal ratio of 5% or lower (almost no effect)); P: Stellaria media, herbicidal effect grade [10]: 0 (Herbicidal ratio of 5% or lower (almost no effect)); Herbicidal effect grade, Q: Galium spurium [11, 20]: 0 (Herbicidal ratio of 5% or lower (almost no effect)); Effect on crop grade, d: soybean [12, 20]: 0 (Herbicidal ratio of 5% or lower (almost no effect)); M: Abutilon theophrasti, herbicidal effect grade [13]: 0 (Herbicidal ratio of 5% or lower (almost no effect)); I: Avena fatua, herbicidal effect grade [14]: 3 (Herbicidal ratio of 40% or higher and lower than 70%); L: Apera spica-venti, herbicidal effect grade [15]: 0 (Herbicidal ratio of 5% or lower (almost no effect)); Herbicidal effect grade, M: Abutilon theophrasti [16, 20]: 0 (Herbicidal ratio of 5% or lower (almost no effect)); O: Chenopodium album, herbicidal effect grade [17]: 0 (Herbicidal ratio of 5% or lower (almost no effect)) |
| CON=C(C)CC1CC(OC(=O)N(C)CCCCCl)=C(c2c(C)cc(C)cc2C)C1=O (stereo not drawn) [1-126] | 4 (Herbicidal ratio of 70% or higher and lower than 90%) | 3 (Herbicidal ratio of 40% or higher and lower than 70%) | 0 (Herbicidal ratio of 5% or lower (almost no effect)) | 0 (Herbicidal ratio of 5% or lower (almost no effect)) | 0 (Herbicidal ratio of 5% or lower (almost no effect)) | 4 (Herbicidal ratio of 70% or higher and lower than 90%) | 0 (Herbicidal ratio of 5% or lower (almost no effect)) | 0 (Herbicidal ratio of 5% or lower (almost no effect)) | 0 (Herbicidal ratio of 5% or lower (almost no effect)) | 0 (Herbicidal ratio of 5% or lower (almost no effect)) | 0 (Herbicidal ratio of 5% or lower (almost no effect)) | 0 (Herbicidal ratio of 5% or lower (almost no effect)) | 3 (Herbicidal ratio of 40% or higher and lower than 70%) | 3 (Herbicidal ratio of 40% or higher and lower than 70%) | 0 (Herbicidal ratio of 5% or lower (almost no effect)) |  |  |  | L: Apera spica-venti, herbicidal effect grade ([8]; 320 g/ha): 0 (Herbicidal ratio of 5% or lower (almost no effect)) |
| CC(CC1CC(O)=C(c2c(C)cc(C)cc2C)C1=O)=NOCC(C)Br (stereo not drawn) [1-135] | 5 (Herbicidal ratio of 90% or more (almost completely withered)) | 5 (Herbicidal ratio of 90% or more (almost completely withered)) | 5 (Herbicidal ratio of 90% or more (almost completely withered)) | 0 (Herbicidal ratio of 5% or lower (almost no effect)) | 5 (Herbicidal ratio of 90% or more (almost completely withered)) | 5 (Herbicidal ratio of 90% or more (almost completely withered)) | 3 (Herbicidal ratio of 40% or higher and lower than 70%) | 0 (Herbicidal ratio of 5% or lower (almost no effect)) | 1 (Herbicidal ratio of 5% or higher and lower than 20%) | 0 (Herbicidal ratio of 5% or lower (almost no effect)) | 0 (Herbicidal ratio of 5% or lower (almost no effect)) | 3 (Herbicidal ratio of 40% or higher and lower than 70%) | 5 (Herbicidal ratio of 90% or more (almost completely withered)) | 5 (Herbicidal ratio of 90% or more (almost completely withered)) | 0 (Herbicidal ratio of 5% or lower (almost no effect)) | 0 (Herbicidal ratio of 5% or lower (almost no effect)) | 5 (Herbicidal ratio of 90% or more (almost completely withered)) | 5 (Herbicidal ratio of 90% or more (almost completely withered)) |  |
| CC(CC1CC(O)=C(c2c(C)cc(C)cc2C)C1=O)=NOCc1ccc(Cl)cc1 (stereo not drawn) [1-137] | 5 (Herbicidal ratio of 90% or more (almost completely withered)) | 5 (Herbicidal ratio of 90% or more (almost completely withered)) | 5 (Herbicidal ratio of 90% or more (almost completely withered)) | 0 (Herbicidal ratio of 5% or lower (almost no effect)) | 5 (Herbicidal ratio of 90% or more (almost completely withered)) | 5 (Herbicidal ratio of 90% or more (almost completely withered)) | 2 (Herbicidal ratio of 20% or higher and lower than 40%) | 0 (Herbicidal ratio of 5% or lower (almost no effect)) | 0 (Herbicidal ratio of 5% or lower (almost no effect)) | 0 (Herbicidal ratio of 5% or lower (almost no effect)) | 0 (Herbicidal ratio of 5% or lower (almost no effect)) | 4 (Herbicidal ratio of 70% or higher and lower than 90%) | 5 (Herbicidal ratio of 90% or more (almost completely withered)) | 5 (Herbicidal ratio of 90% or more (almost completely withered)) | 0 (Herbicidal ratio of 5% or lower (almost no effect)) | 3 (Herbicidal ratio of 40% or higher and lower than 70%) | 4 (Herbicidal ratio of 70% or higher and lower than 90%) | 3 (Herbicidal ratio of 40% or higher and lower than 70%) |  |
